Results published in article PMC10409515, “Enzymatic properties of alcohol dehydrogenase PedE_M.s. derived from Methylopila sp. M107 and its broad metal selectivity” (Frontiers in Microbiology, 2023).

The compounds below were run on T1, PedE_M.s. (assay: PMS-mediated DCPIP reduction at […] nm; Michaelis-Menten fit). Settings: PMS 1 mM, DCPIP 150 uM, 45 mM NH4Cl, 100 mM Tris-HCl pH 9.0; optimal conditions (30 °C optimum; general assay text says about 26 °C); Ca2+-PQQ enzyme; read-out: Methylopila sp. M107 / Km.
T1 construct: gene pedE; C-terminal 8xHis tag; codon-optimised gene expressed in Methylorubrum extorquens AM1 (quadruple mutant) with Ca2+; Ni-NTA purified; signal peptide not discussed
Assay type: biochemical

Row | Structure (SMILES) | Km [µM]
1 | C=O [Formaldehyde] | 39 ± 21
2 | CO [Methanol] | 25 ± 6
3 | CCCCCCO [Hexanol] | 79 ± 14
4 | CCCCCO [Pentanol] | 49 ± 14

More lines, now with the values ahead:

Row | Km [µM] | Structure (SMILES)
5 | 25 ± 6 | CCCO [Propanol]
6 | 28 ± 6 | CCO [Ethanol]
7 | 35 ± 12 | CC(C)O [Isopropanol]
8 | 39 ± 15 | CCCCO [Butanol]
